Experimental data published in PMC10401651, “Characterization of Uranyl (UO2^2+) Ion Binding to Amyloid Beta (Aβ) Peptides: Effects on Aβ Structure and Aggregation” (ACS Chemical Neuroscience, 2023).

Molecular target: T1, Aβ42 oligomers (Homo sapiens, UniProt P05067)
T1 construct: Synthetic lyophilized wt Aβ (1–42) peptides, abbreviated as Aβ42; purchased JPT Peptide Technologies (Germany); host or cells: synthetic peptide
Test: FTIR spectroscopy of SDS-stabilized Aβ42 oligomer structure
Procedure: The secondary structures of Aβ42 oligomers formed with different SDS and uranyl concentrations were studied with FTIR spectroscopy, where the amide I region (1700–1600 cm^–1) is very sensitive to changes in the protein backbone conformation, including differences in β-sheet structures.[133]−[135] […] This split pattern of IR bands in the amide I region is typical for anti-parallel β-sheet structures.[136]−[138]
Treatment of Aβ42 peptides with low concentrations (≤7 mM) of SDS, i.e., below the critical micelle concentration for SDS, which is 8.2 mM in water at 25 °C,[152] leads to the formation of stable and homogeneous Aβ42 oligomers of certain sizes and conformations.[131],[132],[153] […] The absorbance for each fraction at 280 nm was measured with a NanoDrop instrument (Eppendorf, Germany), and peptide concentrations were determined using a molar extinction coefficient of 1280 M^–1 cm^–1 for the single Tyr in Aβ42.[155] […]
FTIR spectra of the SDS-stabilized Aβ42 oligomers (prepared as described in Section 5.2) were recorded in transmission mode on a Tensor 37 FTIR spectrometer (Bruker Optics, Germany) equipped with a sample shutter and a liquid nitrogen-cooled MCT detector. […] FTIR spectra were recorded at room temperature in the 1900–800 cm^–1 range, with 300 scans for both background and sample spectra, using a 6 mm aperture and at a resolution of 2 cm^–1. […]

T1 sequence (P05067 672-713 limits assumed): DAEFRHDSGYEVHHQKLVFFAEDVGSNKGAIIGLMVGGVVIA

Question: What does the source list for CC(=O)[O-].CC(=O)[O-].[O]=[U+2]=[O] [uranyl ions, uranyl acetate]?
Answer: β-sheet main band position (amide I, FTIR) (AβO0.05%SDS oligomers in PBS, 1 mM uranyl acetate (1628.3 without)): 1627.8 cm^–1; β-sheet main band position (amide I, FTIR) (AβO0.2%SDS oligomers, 0.01, 0.1, and 1 mM uranyl acetate (1629.9 without)): 1629.8 cm^–1
